Measured values from patent US6639111B2, “5-thia-ω-(substituted phenyl)-prostaglandin E alcohols, process for preparing the alcohols and pharmaceutical preparations containing the same as the active ingredient” (Ono Pharmaceutical Co., Ltd., priority 2000, dated 2003).

What was measured:
[1] = Converting into carboxylic acid in the living body: concentration in blood plasma of rat (LC/MS/MS); format: in vivo, SD-strain male rat; conditions: after Example 1(1) 1 mg/kg intravenous to rat, parent alcohol and the carboxylic acid formed from it
Method: The compound of Example 1(1) (1 mg/kg; alcohol compound) was administered into SD-strain male rat by intravenous route to determine each concentration of the said compound and corresponding carboxylic acid, i.e., (11α, 15α, 13E)-9-oxo-11,15-dihydroxy-16-(3-methoxymethylphenyl)-17,18,19,20-tetranor-5-thiaprost-13-enoic acid (corresponding carboxylic acid) in blood plasma. The test solution may be prepared from a physiological saline solution containing 0.3%ethanol and 0.1% POLYSORBATE 80. The concentration was determined by using liquid chromatograph mass spectrometer (LC/MS/MS).

TNF-α = assay: Inhibitory action on producing TNF-α induced by LPS in rat; format: in vivo, SD-strain male rat; conditions: p.o. 30 minutes before LPS (10 μg/2 ml/kg i.v.); dose giving 50% inhibition of TNF-α in blood plasma 90 minutes after LPS
Method: LPS (10 μg/2 ml/kg) was administered into a tail vein of SD-strain male rat. Blood was collected from an abdominal large vein with heparin after 90 minutes from administration to prepare blood plasma. The amount of TNF-α in the blood plasma was determined by using ELISA Kit (Rat TNF-α Immunoassay kit, Biosource Co.). Each compound of the present invention was administered orally before 30 minutes from administration of LPS.

Structure (SMILES): COCc1cccc(C[C@H](O)/C=C/[C@H]2[C@H](O)CC(=O)[C@@H]2CCSCCCCO)c1 [Example 1(1), (11α, 15α, 13E)-9-oxo-11,15-Dihydroxy-16-(3-methoxymethylphenyl)-17,18,19,20-tetranor-5-thiaprost-13-en-1-alcohol]
- AUC(0-inf) ([1]; male, SD, plasma, read-out: Concentration in blood plasma AUC0-∞): 462 ± 78 ng·h/mL
- Effective dose IC50 (TNF-α): 0.0574 mg/kg

Structure (SMILES): COCc1cccc(C[C@H](O)/C=C/[C@H]2CCC(=O)[C@@H]2CCSCCCCO)c1 [Example 1, (15α, 13E)-9-oxo-15-Hydroxy-16-(3-methoxymethylphenyl)-17,18,19,20-tetranor-5-thiaprost-13-en-1-alcohol]
- Effective dose IC50 (TNF-α): 0.117 mg/kg

Structure (SMILES): COCc1cccc(C[C@H](O)/C=C/[C@H]2[C@H](O)CC(=O)[C@@H]2CCSCCCC(=O)O)c1 [corresponding carboxylic acid, (11α, 15α, 13E)-9-oxo-11,15-dihydroxy-16-(3-methoxymethylphenyl)-17,18,19,20-tetranor-5-thiaprost-13-enoic acid]
- Concentration in blood plasma AUC0-∞ [1]: 99 ± 26 ng·h/mL
